# From patent US20110195420A1, “ESTROGEN AND ANTI-ESTROGEN MARKER GENES” (Merck Patent Gesellschaft, priority 2009, published 2011)
# Entries after “also recorded” stand apart in the source; their conditions may differ. Like-named read-outs stand apart in the source and are kept apart here.
# Columns and labels:
# Ishikawa plus cells = experiment: Illumina global gene expression profiling in Ishikawa plus cells after 24 h EAC treatment (ANOVA, correlation, K-Means clustering); type: cell-based, human
# Method: Cells were routinely maintained in DMEM/F12 with L-Glutamine and 15 mM Hepes supplemented with 10% (v/v) FBS, 1% (v/v) penicillin (10 kU/ml)-streptomycin (10 mg/ml) solution, 0.1% (v/v) Gentamicin (50 mg/ml) and 1 mM sodium pyruvate at 37° C. and 5% CO2 in culture flasks. 5×10^5 cells were seeded onto 6-well plates in phenol-red free DMEM/F12 with L-Glutamine and 15 mM Hepes containing 10% (v/v) dextran-coated charcoal treated FBS, sodium pyruvate and antibiotics.
# All experiments were performed three times with cells of passages 3-25.
# After a 24 h treatment period cells were rinsed with PBS (Gibco Invitrogen, Karlsruhe, Germany), harvested and total RNA was extracted using the RNeasy Mini Kit (QIAGEN, Hilden, Germany) as described by the manufacturer, including the QIAshredder spin column procedure and on-column RNase-free DNase digestion. RNA was eluted with 40 μl of RNA-Storage solution (Ambion, Darmstadt, Germany). RNA quality control and quantification was determined using a NanoDrop® spectrophotometer (Kisker, Steinfurt, Germany) and 2100 Agilent Bio-Analyzer (Agilent Technologies, Waldbronn, Germany). Only RNA with a quality ratio A260/A280 between 1.9 and 2.1 and no evidence of peak degradation (18s/28s) was used.
# Gene expression analysis was executed using Illumina Sentrix® HumanRef-8 V2 BeadChip Arrays (Illumina Inc., San Diego, Calif., USA) allowing the analysis of ˜23,000 transcripts. […] Instead of column cleanup, the bead-based Agencourt® RNAcIean™ system (Beckman Coulter, Krefeld, Germany) was applied to purify cDNA and cRNA. cRNA quantity was measured spectrophotometrically (NanoDrop®) and the 2100 Agilent Bio-Analyzer was used for quality assessment.
# Seven hundred fifty nanograms of amplified biotinylated cRNA were hybridized onto the Illumina Sentrix® BeadChip in a Hybridization Cartridge under humidified conditions for 20 h at 58° C. (Hybridization oven, Illumina Inc., San Diego, Calif., USA). The chips were then washed, stained for 10 minutes with 1 μg/ml streptavidin-conjugated Cy3 (Amersham Biosciences, Buckinghamshire, UK) and finally dried by centrifugation according to the protocol provided.
# Data were uploaded into Genedata's Expressionist® Analyst software (Genedata AG, Basel, Switzerland) for data normalization and statistical analysis. Data were normalized using Lowess (Locally Weighted Linear Regression) to offset non-biological differences (systematic variation) between the samples and arrays. After normalization fold-regulations for each individual compound treatment were calculated. The global gene set was reduced by filtering any signal intensity<200 (background level) to reduce error rates of multiple testing during further analysis.
# Thus, only genes with a p-value and BH-Q-value less than 0.01 were accepted as significant.
# For selection of characteristic estrogenicity marker genes, ANOVA was applied to the tested EACs against the vehicle controls. Only genes having a p-value and BH-Q-value less than 0.01 were accepted as significant.
# ERα = target: T1, ERα (Homo sapiens, UniProt P03372); conditions: consensus ERE reporter; used as low dose level; read-out: compound concentration causing a half maximal activation of the reporter gene (EC50); cited from earlier work
# T1 sequence (P03372 1-595): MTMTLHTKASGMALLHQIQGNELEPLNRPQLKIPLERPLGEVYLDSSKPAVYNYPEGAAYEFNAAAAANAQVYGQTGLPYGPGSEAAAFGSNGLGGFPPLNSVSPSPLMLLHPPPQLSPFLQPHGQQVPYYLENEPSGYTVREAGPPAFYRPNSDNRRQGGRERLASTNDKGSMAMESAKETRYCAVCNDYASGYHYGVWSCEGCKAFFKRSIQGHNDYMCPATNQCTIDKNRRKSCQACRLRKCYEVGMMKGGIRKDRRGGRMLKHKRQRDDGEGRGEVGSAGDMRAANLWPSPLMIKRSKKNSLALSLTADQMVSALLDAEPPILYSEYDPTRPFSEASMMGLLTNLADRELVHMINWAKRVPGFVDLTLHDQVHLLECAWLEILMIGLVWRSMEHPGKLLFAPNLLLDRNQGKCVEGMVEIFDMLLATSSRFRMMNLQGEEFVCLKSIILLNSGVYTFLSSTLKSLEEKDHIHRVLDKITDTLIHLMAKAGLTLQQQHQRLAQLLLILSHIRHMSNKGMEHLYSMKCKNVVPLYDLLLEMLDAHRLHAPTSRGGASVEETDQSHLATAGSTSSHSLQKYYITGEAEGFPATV
# [1] = Pearson correlation on significantly regulated genes, 24 h, dose not specified
# [2] = Pearson correlation, 24 h, high dose
# [3] = Pearson correlation, 24 h, low dose
# [4] = clusters 3 and 4, same direction as ICI, 24 h
# [5] = K-Means clustering, p-value/BH-Q-value<0.01, 24 h
compound,measurement,setting,value
"O=c1c(-c2ccc(O)cc2)coc2cc(O)cc(O)c12 [GEN, Genistein]",doses at which anti-estrogenic gene regulation was displayed,Ishikawa plus cells; 24 h,only at low doses
same,share of ER-dependent regulated genes (clusters 1 and 2) also regulated in the same direction after DES treatment,Ishikawa plus cells; 24 h,Approximately 66%
same,correlation of gene expression to ICI,Ishikawa plus cells; [1],good correlation
same,correlation of gene expression compared with DES,Ishikawa plus cells; [2],medium to high correlations
same,similarity of gene expression with ICI,Ishikawa plus cells; [2],little similarity
same,correlation of gene expression compared with DES,Ishikawa plus cells; [3],low positive correlation
same,correlation of gene expression to ICI,Ishikawa plus cells; [3],high positive correlation; also recorded: high correlations
same,kind of regulated genes identified by K-Means clustering,"Ishikawa plus cells; high dose, 24 h",only ER-dependent regulated genes were identified; also recorded: Only genes with ER-dependent regulation profiles
same,share of low dose deregulated genes similarly regulated by ICI (clusters 5 and 6),"Ishikawa plus cells; low dose, 24 h",approximately 86%
"CC(C)(c1ccc(O)cc1)c1ccc(O)cc1 [BPA, Bisphenol A]",share of ER-dependent regulated genes (clusters 1 and 2) also regulated in the same direction after DES treatment,Ishikawa plus cells; 24 h,Eighty
same,correlation of gene expression compared with DES,Ishikawa plus cells; [1],low positive correlation
same,correlation of gene expression to ICI,Ishikawa plus cells; [1],high positive correlation; also recorded: high correlations; also recorded: good correlation
same,"anti-estrogen-like gene regulation, share of significantly regulated genes",Ishikawa plus cells; [4],86%
"C[C@H]1CCCC(=O)CCC/C=C/c2cc(O)cc(O)c2C(=O)O1 [ZEA, Zearalenone]",doses at which anti-estrogenic gene regulation was displayed,Ishikawa plus cells; 24 h,only at low doses
same,share of ER-dependent regulated genes (clusters 1 and 2) also regulated in the same direction after DES treatment,Ishikawa plus cells; 24 h,Approximately 66%
same,correlation of gene expression to ICI,Ishikawa plus cells; [1],good correlation
same,correlation of gene expression compared with DES,Ishikawa plus cells; [2],medium to high correlations
same,similarity of gene expression with ICI,Ishikawa plus cells; [2],little similarity
same,correlation of gene expression compared with DES,Ishikawa plus cells; [3],low positive correlation
same,correlation of gene expression to ICI,Ishikawa plus cells; [3],high positive correlation; also recorded: high correlations
same,kind of regulated genes identified by K-Means clustering,"Ishikawa plus cells; high dose, 24 h",only ER-dependent regulated genes were identified; also recorded: Only genes with ER-dependent regulation profiles
same,share of low dose deregulated genes similarly regulated by ICI (clusters 5 and 6),"Ishikawa plus cells; low dose, 24 h",~91%
same,EC50,ERα,0.0025 µM
"C[C@]12CC[C@@H]3c4ccc(O)cc4C[C@@H](CCCCCCCCC[S+]([O-])CCCC(F)(F)C(F)(F)F)[C@H]3[C@@H]1CC[C@@H]2O (stereo partly drawn) [ICI, ICI 182,780]",regulation of the 87 marker genes,"Ishikawa plus cells; ICI 100 nM alone and ICI/compound combination, 24 h",Most genes showed a weaker regulation score or were diametrically regulated
"Clc1ccc(C(c2ccccc2Cl)C(Cl)(Cl)Cl)cc1 (stereo not drawn) [DDT, o,p′-Dichlordiphenyltrichlorethane]","anti-estrogen-like gene regulation, share of significantly regulated genes",Ishikawa plus cells,85%
same,correlation of gene expression compared with DES,Ishikawa plus cells,low positive correlation
same,correlation of gene expression to ICI,Ishikawa plus cells,high positive correlation; also recorded: high correlations; also recorded: good correlation
same,share of ER-dependent regulated genes (clusters 1 and 2) also regulated in the same direction after DES treatment,Ishikawa plus cells,72%
"Oc1ccc(C=Cc2cc(O)cc(O)c2)cc1 [RESV, Resveratrol]","estrogen-like gene expression, share of significantly regulated genes",Ishikawa plus cells; 24 h,48%
same,portion of the putative estrogenic marker genes regulated unidirectional to ICI,Ishikawa plus cells; 24 h,one third
same,share of ER-dependent regulated genes (clusters 1 and 2) also regulated in the same direction after DES treatment,Ishikawa plus cells; 24 h,6%
same,correlation of gene expression compared with DES,Ishikawa plus cells; [1],no correlation
same,correlation of gene expression to ICI,Ishikawa plus cells; [1],high positive correlation
same,"anti-estrogen-like gene regulation, share of significantly regulated genes",Ishikawa plus cells; [4],52%
same,EC50,ERα,7.5 µM
"CC/C(=C(/CC)c1ccc(O)cc1)c1ccc(O)cc1 [DES, Diethylstilbestrol]",kind of regulated genes identified by K-Means clustering,"Ishikawa plus cells; 24 h, dose not specified",only genes with ER-dependent expression profiles; also recorded: Only genes with ER-dependent regulation profiles
same,number of down-regulated genes with ER-dependent expression profiles,Ishikawa plus cells; [5],62
same,number of up-regulated genes with ER-dependent expression profiles,Ishikawa plus cells; [5],193
same,correlation of gene expression to ICI,Ishikawa plus cells; [1],negatively correlated
